Tested on: PDE10A
Test: not given
Set-up: method as in PMID 21705115
Details: reference compound; cited from earlier work

SMILES	IC50
COc1ccc(Cc2nccc3cc(OC)c(OC)cc23)cc1OC [Papaverine]	0.019 µM

Tested on: Raw 264.7 cells
Test: Inhibition of nitrite production in LPS-stimulated murine macrophages (Griess reaction)
Type: cell-based
Details: inhibitors 10 μM, 1 h pretreatment, LPS 10 μg mL−1, 24 h, versus LPS-treated cells
Text: Finally, to explore the anti-inflammatory potential of the new allosteric PDE10A inhibitors here described, a cell-based assay was used. We have determined differences in nitrite production of Raw 264.7 cells after they were damaged with bacterial lipopolysaccharide (LPS) and treated with selected inhibitors. First, the effect of the compounds on cell viability was examined at various concentrations showing […] significant cytotoxic effect in the present experiments (data not shown).
Figure 4 Raw 264.7 cells were incubated for 24 h with lipopolysaccharide (LPS; 10 μg mL^−1) in the absence or presence of various Phosphodiesterase (PDE) inhibitors (10 μM), and the production of nitrite was evaluated by the Griess reaction. Cells were pretreated with inhibitors for 1 h before lipopolysaccharide (LPS) stimulation. Values represent the mean ± SD from two independent experiments. *: p < 0.05; **: p < 0.01 versus LPS-treated cells.
The content of nitrite, one of the end products of NO oxidation, was monitored by a procedure based on the diazotidation of nitrite by sulfanilic acid (Griess reaction). […] The absorbance (520 nm) of the mixture was measured on a microplate reader. The concentration of nitrite was calculated with the linear equation derived from the standard curve generated by known concentrations of sodium nitrite.

SMILES	nitrite production
COc1ccc(-c2n/c(=N/Cc3cccnc3)sn2-c2ccccc2)cc1 [Compound 5]	significantly decreased
CC(=O)C1=C(c2c[nH]c3ccccc23)C(=O)NC1=O [Compound 4]	significantly decreased

Target: T1, human recombinant PDE10A2 (Homo sapiens, UniProt Q9Y233)
T1 construct: These compounds were tested against recombinant human full-length isoenzyme PDE10A; purchased Calbiochem 524739
Test: Radiometric phosphodiesterase inhibition assay (SPA, [3H]cAMP)
Type: biochemical
Details: fixed compound concentration of 10 µM; read-out: percentage of inhibition of PDE10A
Method: The methodology used for measuring human recombinant PDE10A2 activity was based in a Scintillation Proximity Assay (SPA) from Perkin Elmer (TRKQ7090).
After the incubation time, 50 µL of a solution of SPA-beads (approximately 1 mg per well) were added to each well and the plate was shaken for 1 h at room temperature. Finally, beads were settled for 30 min and radioactivity was detected in a Microbeta Trilux reader (Perkin Elmer, Shelton, CT, USA).
IC50 values were calculated by non-linear regression fitting using the GraphPad Prism. Data (radioactivity vs. log concentration) was fitted to a sigmoidal dose-response equation: Y = Bottom + (Top-Bottom)/(1 + 10^[…]), where Bottom and Top were the minimum and maximal inhibition for PDE, respectively, IC50 was the concentration of the compound that inhibited the PDE activity in a 50%, and n was the slope of the concentration-response curve.

T1 sequence (Q9Y233 267-1055): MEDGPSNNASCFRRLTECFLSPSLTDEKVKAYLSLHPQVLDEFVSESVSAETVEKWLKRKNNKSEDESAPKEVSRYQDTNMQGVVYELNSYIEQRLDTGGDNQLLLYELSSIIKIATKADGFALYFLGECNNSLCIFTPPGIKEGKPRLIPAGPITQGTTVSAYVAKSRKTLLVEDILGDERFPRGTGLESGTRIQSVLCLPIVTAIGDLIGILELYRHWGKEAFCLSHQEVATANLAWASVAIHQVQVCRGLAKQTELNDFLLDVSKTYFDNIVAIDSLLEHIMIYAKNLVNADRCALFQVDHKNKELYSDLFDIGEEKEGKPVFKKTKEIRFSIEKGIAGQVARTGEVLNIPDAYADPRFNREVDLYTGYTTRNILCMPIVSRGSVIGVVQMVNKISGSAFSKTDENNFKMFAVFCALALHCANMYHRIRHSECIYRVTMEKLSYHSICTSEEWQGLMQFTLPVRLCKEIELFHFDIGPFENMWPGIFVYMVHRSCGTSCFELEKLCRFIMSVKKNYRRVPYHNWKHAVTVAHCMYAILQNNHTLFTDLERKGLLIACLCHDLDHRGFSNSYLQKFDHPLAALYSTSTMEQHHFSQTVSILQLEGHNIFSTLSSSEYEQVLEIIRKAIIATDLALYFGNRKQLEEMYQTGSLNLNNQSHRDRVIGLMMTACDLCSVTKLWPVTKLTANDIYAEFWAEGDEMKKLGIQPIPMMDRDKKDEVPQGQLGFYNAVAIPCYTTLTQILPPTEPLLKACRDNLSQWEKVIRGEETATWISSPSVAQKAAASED

inhibition at 10 µM	SMILES
3%	O=S1(=O)N=C(O)c2cc(-c3ccccc3)sc2N1 [Compound 12]
15%	O=Cc1nc(-c2ccc(Cl)cc2)ns1 [Compound 13]
44%	O=C(Cc1cccc(Cl)c1)Nc1nc2ccccc2s1 [Compound 11]
2%	CC(=O)NNC(=O)c1c(O)n(C)c2ccccc2c1=O [Compound 10]
3%	Cc1ccc(-n2nc(C(C)(C)C)cc2N)cc1 [Compound 9]
24%	CC(=O)C1=C(c2c(C)[nH]c3ccccc23)C(=O)NC1=O [Compound 14]
40%	O=C(Cc1ccccc1)Sc1ncnc2[nH]cnc12 [Compound 2]
7%	O=C(O)COC(=O)CNC(=O)c1ccccc1 [Compound 3]

Same assay, conditions: recombinant human full-length PDE10A

IC50	SMILES
8.2 µM	CC(=O)C1=C(c2c[nH]c3ncccc23)C(=O)NC1=O [Compound 7]
1.8 µM	COc1ccc(-c2n/c(=N/Cc3cccnc3)sn2-c2ccccc2)cc1 [Compound 5]
2.4 µM	O=C(CBr)C1=C(c2c[nH]c3ccccc23)C(=O)NC1=O [Compound 16]
10.2 µM	CC(=O)C1=C(c2c[nH]c3ccccc23)C(=O)NC1=O [Compound 4]
2.9 µM	Cn1cc(C2=C(C(=O)CBr)C(=O)NC2=O)c2ccccc21 [Compound 18]
6.5 µM	CC(=O)C1=C(c2cn(C)c3ncccc23)C(=O)NC1=O [Compound 15]
8.2 µM	CC(=O)C1=C(c2cn(C)c3ccccc23)C(=O)NC1=O [Compound 17]
4.6 µM	CC(=O)C1=C(c2ccc(C#N)cc2)C(=O)NC1=O [Compound 1]
